For experiment [1], the target named is Adenosine receptors; A1 & A2 (Rattus norvegicus) (UniProt P29276+P25099+P30543). Kind of experiment: Ratio of Ki values of A1 adenosine and A2 adenosine receptor. Format: protein assay.
Experiment [2] addresses T1, Adenosine receptor A1 (Rattus norvegicus, UniProt P25099).
T1 sequence (P25099 whole entry): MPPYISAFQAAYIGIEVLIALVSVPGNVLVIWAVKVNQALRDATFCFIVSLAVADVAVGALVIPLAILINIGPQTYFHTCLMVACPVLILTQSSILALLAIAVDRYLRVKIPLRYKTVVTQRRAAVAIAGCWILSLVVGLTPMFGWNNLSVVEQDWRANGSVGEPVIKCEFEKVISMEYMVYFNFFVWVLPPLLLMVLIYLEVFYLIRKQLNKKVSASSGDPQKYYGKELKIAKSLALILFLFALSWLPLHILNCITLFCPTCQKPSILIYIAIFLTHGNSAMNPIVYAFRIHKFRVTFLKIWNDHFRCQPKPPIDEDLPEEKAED
Nature of the experiment: Binding affinity towards adenosine A1 receptor.

In experiment [3] the target is Adenosine A2 receptor (Rattus norvegicus, UniProt P29276+P30543). Nature of the experiment: Binding affinity towards adenosine A2 receptor. Format: protein assay.
The subject of experiment [4] is Rattus norvegicus. Nature of the experiment: Antihypertensive activity measured as change in blood pressure for a 10-h after 10 mg/kg oral dose in rat. Format: functional.
In experiment [5] the test system is Rattus norvegicus. Nature of the experiment: Antihypertensive activity measured as change in heart rate was measured for a 10-h after 10 mg/kg oral dose. In kind it is functional.

Experimental findings from ChEMBL document CHEMBL1125617, “N6-substituted adenosine receptor agonists: potential antihypertensive agents” (J Med Chem, 1991) are described below.

In general, Ki refers to the equilibrium dissociation constant of an inhibitor or competing ligand from its target. Lower therefore signals tighter binding. Take `CCOc1ccc2c(c1)CCC2Nc1ncnc2c1ncn2[C@@H]1O[C@H](CO)[C@@H](O)[C@H]1O` (stereo not given in full): the Ratio in experiment [1] is 224. In addition, the inhibition constant Ki in experiment [2] was found to be 33.4 nM; in experiment [3], 7.487 µM. The Change in experiment [4] is given as -33%; in experiment [5], -34%.
For `CCCOc1ccc2c(c1)C(Nc1ncnc3c1ncn3[C@@H]1O[C@H](CO)[C@@H](O)[C@H]1O)CCC2` (stereo not given in full) the same measures were 95.5, 506 nM, 48.29 µM, under 10% and 36%.
For `CC(C)COc1ccc2c(c1)CCC2Nc1ncnc2c1ncn2[C@@H]1O[C@H](CO)[C@@H](O)[C@H]1O` (stereo not given in full) the same measures were 323, 28 nM, 9.038 µM, -39% and -21%.
On the same counts, the results for `OC[C@H]1O[C@@H](n2cnc3c(NC4Cc5ccccc5C4)ncnc32)[C@H](O)[C@@H]1O` are 68.9, 23.8 nM, 1.642 µM, -29% and -47%.
Consider `OC[C@H]1O[C@@H](n2cnc3c(NC4CCc5cc(O)ccc54)ncnc32)[C@H](O)[C@@H]1O` (stereo not given in full), for which the Ratio in experiment [1] is 18.2. Also, the figures for the inhibition constant (Ki) in experiment [2] and in experiment [3] were 42.3 nM and 0.769 µM, respectively. The Change in experiment [4] is listed as -17%; in experiment [5] it was -11%.
For `COc1ccc2c(c1)C(Nc1ncnc3c1ncn3[C@@H]1O[C@H](CO)[C@@H](O)[C@H]1O)CCC2` (stereo in doubt; 31) [listing 1 of 2 here], the figures for the Ki in experiment [2] and in experiment [3] were 22.9 nM and 0.619 µM, respectively. Moreover, the figures for the Change in experiment [4] (10 mg/kg) and in experiment [5] (10 mg/kg) were -56% and -40%, respectively.
In the case of `OC[C@H]1O[C@@H](n2cnc3c(NCC4CCCc5ccccc54)ncnc32)[C@H](O)[C@@H]1O` (stereo not given in full), in experiment [1], the Ratio is 5.2. Further, the values for the Ki in experiment [2] and in experiment [3] were 17.3 nM and 0.0917 µM, respectively. The results for the Change in experiment [4] and in experiment [5] were under 10% and 21%, respectively.
As to `COc1ccc2c(c1)C(Nc1ncnc3c1ncn3[C@@H]1O[C@H](CO)[C@@H](O)[C@H]1O)CCC2` (single isomer, unassigned; isomer A) [listing 1 of 2 here], in experiment [1], the Ratio is 13.2.
Consider `OC[C@H]1O[C@@H](n2cnc3c(NC4CCc5cc6c(cc54)OCO6)ncnc32)[C@H](O)[C@@H]1O` (stereo not given in full), for which, in experiment [1], the Ratio came to 89.9. The values for the Ki in experiment [2] and in experiment [3] were 50.5 nM and 4.539 µM, respectively. Moreover, the Change in experiment [4] and in experiment [5] was -21% throughout.
In the case of `COc1cc2c(cc1OC)C(Nc1ncnc3c1ncn3[C@@H]1O[C@H](CO)[C@@H](O)[C@H]1O)CC2` (stereo not given in full), the Ratio in experiment [1] was 26.2. Also, the inhibition constant (Ki) in experiment [2] was 115 nM; in experiment [3] it was 3.002 µM. In addition, the Change in experiment [4] was -19%; in experiment [5], under 10%.
With `COc1ccc2c(c1)C(Nc1ncnc3c1ncn3[C@@H]1O[C@H](CO)[C@@H](O)[C@H]1O)CCC2` (single isomer, unassigned; isomer B) [listing 1 of 2 here], the Ki in experiment [2] amounted to 12.1 nM; in experiment [3], 0.274 µM. Further, the Change in experiment [4] (10 mg/kg) is given as -44%; in experiment [5] (10 mg/kg) it was 37%.
Regarding `CCCCOc1ccc2c(c1)CCC2Nc1ncnc2c1ncn2[C@@H]1O[C@H](CO)[C@@H](O)[C@H]1O` (single isomer, unassigned; isomer A) [listing 1 of 2 here], in experiment [1], the Ratio was 2370.
In the case of `OC[C@H]1O[C@@H](n2cnc3c(NC4CCCc5ccc(O)cc54)ncnc32)[C@H](O)[C@@H]1O` (stereo not given in full), the Ratio in experiment [1] was determined as 4. In addition, the values for the inhibition constant (Ki) in experiment [2] and in experiment [3] were 40.1 nM and 0.16 µM, respectively. The Change was -17% in experiment [4] and under 10% in experiment [5].
On the same counts, the results for `COc1ccc2c(c1)CCCC2Nc1ncnc2c1ncn2[C@@H]1O[C@H](CO)[C@@H](O)[C@H]1O` (stereo not given in full) are 41.2, 71.5 nM, 2.947 µM, -30% and under 10%.
For `OC[C@H]1O[C@@H](n2cnc3c(N[C@H]4CCc5ccccc54)ncnc32)[C@H](O)[C@@H]1O` the same measures were 74, 310 nM, 23 µM, under 10% and under 10%.
In the case of `CCCCOc1ccc2c(c1)CCC2Nc1ncnc2c1ncn2[C@@H]1O[C@H](CO)[C@@H](O)[C@H]1O` (single isomer, unassigned; isomer A) [listing 2 of 2 here], the Ki in experiment [2] is 43.6 nM; in experiment [3], 103.2 µM. The Change in experiment [4] (10 mg/kg) is under 10%; in experiment [5] (10 mg/kg), 15%.
Regarding `OC[C@H]1O[C@@H](n2cnc3c(NC4CSc5ccccc5C4)ncnc32)[C@H](O)[C@@H]1O` (stereo not given in full), in experiment [1], the Ratio worked out at 63.9. For the same compound, the Ki in experiment [2] amounted to 3.6 nM; in experiment [3], 0.229 µM. Also, the Change in experiment [4] is listed as -21%; in experiment [5] it was -33%.
On to `OC[C@H]1O[C@@H](n2cnc3c(NCC4(O)CCc5ccccc54)ncnc32)[C@H](O)[C@@H]1O` (stereo not given in full), for which the Ratio in experiment [1] was found to be 9.8. Moreover, the Ki in experiment [2] was 68 nM; in experiment [3], 0.666 µM. The Change in experiment [4] was -23%; in experiment [5], 17%.
Consider `CCCCOc1ccc2c(c1)CCC2Nc1ncnc2c1ncn2[C@@H]1O[C@H](CO)[C@@H](O)[C@H]1O` (single isomer, unassigned; isomer B) [listing 1 of 2 here], for which the Ki was 48.3 nM in experiment [2] and 3.946 µM in experiment [3]. For the same compound, the Change in experiment [4] (10 mg/kg) is -31%; in experiment [5] (10 mg/kg) it was -13%.
As for `CCOc1ccc2c(c1)C(Nc1ncnc3c1ncn3[C@@H]1O[C@H](CO)[C@@H](O)[C@H]1O)CCC2` (stereo not given in full), the Ratio in experiment [1] came out at 86.4. Moreover, the Ki in experiment [2] worked out at 68.6 nM; in experiment [3], 5.929 µM. The Change in experiment [4] was -39%; in experiment [5] it was 32%.
Take `OC[C@H]1OC(n2cnc3c(NC4CCc5ccccc5C4)ncnc32)[C@H](O)[C@@H]1O` (stereo not given in full): the Ratio in experiment [1] worked out at 40.3. Also, the Ki in experiment [2] is 8.39 nM; in experiment [3], 0.339 µM. Besides, the Change in experiment [4] is recorded as -47%; in experiment [5], -44%.
For `CCCOc1ccc2c(c1)CCC2Nc1ncnc2c1ncn2[C@@H]1O[C@H](CO)[C@@H](O)[C@H]1O` (stereo not given in full) the same measures were 188, 28.2 nM, 5.302 µM, -43% and -30%.
Regarding `COc1ccc2c(c1)C(Nc1ncnc3c1ncn3[C@@H]1O[C@H](CO)[C@@H](O)[C@H]1O)CCC2` (single isomer, unassigned; isomer A) [listing 2 of 2 here], the Ki in experiment [2] stood at 2580 nM; in experiment [3], 34.06 µM. The Change in experiment [4] (10 mg/kg) and in experiment [5] (10 mg/kg) was under 10% in each case.
Take `CCCCOc1ccc2c(c1)CCC2Nc1ncnc2c1ncn2[C@@H]1O[C@H](CO)[C@@H](O)[C@H]1O` (stereo in doubt; 15) [listing 1 of 2 here]: the Ratio in experiment [1] was 126.
For `COc1ccc2c(c1)CCC2Nc1ncnc2c1ncn2[C@@H]1O[C@H](CO)[C@@H](O)[C@H]1O` (single isomer, unassigned; isomer A) [listing 1 of 2 here], the values for the Ki in experiment [2] and in experiment [3] were 236 nM and 28.26 µM, respectively. Moreover, the Change in experiment [4] (10 mg/kg) and in experiment [5] (10 mg/kg) was under 10% each time.
For the compound `COc1ccc2c(c1)C(Nc1ncnc3c1ncn3[C@@H]1O[C@H](CO)[C@@H](O)[C@H]1O)CCC2` (stereo in doubt; 31) [listing 2 of 2 here], the Ratio in experiment [1] was 27.
On the same count and under the same terms, under `COc1ccc2c(c1)CCC2Nc1ncnc2c1ncn2[C@@H]1O[C@H](CO)[C@@H](O)[C@H]1O` (single isomer, unassigned; isomer A) [listing 2 of 2 here] stands 120; under `COc1ccc2c(c1)CCC2Nc1ncnc2c1ncn2[C@@H]1O[C@H](CO)[C@@H](O)[C@H]1O` (stereo in doubt; 4) [listing 1 of 2 here], 73.
For `COc1ccc2c(c1)CCC2Nc1ncnc2c1ncn2[C@@H]1O[C@H](CO)[C@@H](O)[C@H]1O` (single isomer, unassigned; isomer b) [listing 1 of 2 here], the Ki in experiment [2] turned out to be 41.7 nM; in experiment [3], 1.45 µM. The values for the Change in experiment [4] (10 mg/kg) and in experiment [5] (10 mg/kg) were -25% and -11%, respectively.
On the same counts, the results for `CCCCOc1ccc2c(c1)CCC2Nc1ncnc2c1ncn2[C@@H]1O[C@H](CO)[C@@H](O)[C@H]1O` (stereo in doubt; 15) [listing 2 of 2 here] are 46.9 nM, 5.922 µM, -46% and -28%.
Take `COc1ccc2c(c1)CCC2Nc1ncnc2c1ncn2[C@@H]1O[C@H](CO)[C@@H](O)[C@H]1O` (single isomer, unassigned; isomer b) [listing 2 of 2 here]: in experiment [1], the Ratio was 34.8.
Still for that read-out and setting: the figure for `CCCCOc1ccc2c(c1)CCC2Nc1ncnc2c1ncn2[C@@H]1O[C@H](CO)[C@@H](O)[C@H]1O` (single isomer, unassigned; isomer B) [listing 2 of 2 here] is 81.7.
The same measure, in the same setting: under `COc1ccc2c(c1)C(Nc1ncnc3c1ncn3[C@@H]1O[C@H](CO)[C@@H](O)[C@H]1O)CCC2` (single isomer, unassigned; isomer B) [listing 2 of 2 here] stands 22.7.
For the compound `COc1ccc2c(c1)CCC2Nc1ncnc2c1ncn2[C@@H]1O[C@H](CO)[C@@H](O)[C@H]1O` (stereo in doubt; 4) [listing 2 of 2 here], the Ki was found to be 59.5 nM in experiment [2] and 4.35 µM in experiment [3]. Besides, the Change in experiment [4] (10 mg/kg) was -40%; in experiment [5] (10 mg/kg), -33%.
